From patent US7172907B2, “Cyanine dye labelling reagents with meso-substitution” (GE Healthcare Bio-Sciences Corp., priority 2003, dated 2007)

How the values were obtained:
[1] = background values for known Cy dyes, X = Y = C(CH3)2; cited from earlier work
[2] = Hydrolytic stability in de-ionized water, fading of the dyes; type: physicochemical
[3] = Photostability: ethanolic solution left in the room light, fading of the dyes; type: physicochemical
[4] = Absorption and emission spectra of meso-cyano Cy5 in MeOH; type: physicochemical
Procedure: (§1) 2-{N-Acetyl-N-phenyl}aminoethenyl-1,3,3-trimethylindoleriine and 2-{N-acetyl-N-phenyl}aminoethenyl-1-{6-carboxypentyl}-3,3-trimethylindolenine (20 mmoles of each) and 10 equivalents of cyanoacetic acid in pyridine (100 ml) were heated under reflux under Argon for 4 hours. At the end of the reaction, the pyridine was evaporated and the product purified by repeated HPLC purification followed by silica gel column chromatography with increasing amounts of MeOH in ethyl acetate as the eluant to give a pure product, 2-{5-[1-(5-carboxypentyl)-3,3-dimethyl-1,3-dihydro-2H-indol-2-ylidene]-3-cyano-1,3-pentadienyl}-1,3,3-trimethyl-3H-indolinium (meso-cyano Cy5). Absorption maximum (MeOH): 610 nm: Emission maximum (MeOH): 628 nm; Quantum yield: 0.65 that of Cy5.

[5] = Fluorescence quantum yield relative to Cy5; type: physicochemical; settings: expressed as fraction of that of Cy5
Procedure: as §1

Compound | Abs max [1] [nm] | Em max [1] [nm] | Hydrolytic stability: half-life (t1/2) for fading of the dyes ([2]; pH=6.85) [h] | Photostability: half-life (t1/2) for fading of the dyes [3] [h] | Absorption maximum [4] [nm] | Emission maximum [4] [nm] | half-life ([2]; pH=6.85, read-out: Hydrolytic stability: half-life (t1/2) for fading of the dyes) [h] | Quantum yield [5] | half-life ([3]; read-out: Photostability: half-life (t1/2) for fading of the dyes) [h]
CCN1C(=CC=CC2=[N+](CCCCCC(=O)O)c3ccc(S(=O)(=O)O)cc3C2(C)C)C(C)(C)c2cc(S(=O)(=O)[O-])ccc21 [Cy3] | 550 | 570 |  |  |  |  |  |  | 
CCN1/C(=C/C=C/C=C/C2=[N+](CCCCCC(=O)O)c3ccc(S(=O)(=O)O)cc3C2(C)C)C(C)(C)c2cc(S(=O)(=O)[O-])ccc21 [Cy5] | 649 | 670 | 56 | 22 |  |  |  |  | 
CN1/C(=C/C=C(C#N)/C=C/C2=[N+](CCCCCC(=O)O)c3ccccc3C2(C)C)C(C)(C)c2ccccc21 [meso-cyano Cy5, 2-{5-[1-(5-Carboxypentyl)-3,3-dimethyl-1,3-dihydro-2H-indol-2-ylidene]-3-cyano-1,3-pentadienyl}-1,3,3-trimethyl-3H-indolinium] |  |  |  |  | 610 | 628 | > 150 | 0.65 | > 75
Cy5.5 | 675 | 694 |  |  |  |  |  |  | 
